US11793794B2, “Combination therapy for treating or preventing depression or other mood diseases” (YALE UNIVERSITY, priority 2018, dated 2023)

Tested on: patients with major depression
Test: double-blind placebo-controlled crossover study: rapamycin or placebo 2 hours before ketamine infusion, depression severity (MADRS)
Assay type: in vivo, human
Procedure: The present studies address a longstanding question in the field—whether the antidepressant effects of ketamine depend upon its capacity to stimulate a key protein known as the mechanistic target for rapamycin (mTOR). If that is indeed the case, ketamine's effects should be reduced when mTOR is inhibited. To test this hypothesis, a double-blind placebo-controlled crossover study was conducted under fully randomized conditions, whereby one set of patients was treated with the mTOR inhibitor rapamycin, an FDA approved drug that is currently used to treat certain immune disorders and cancers.
In this design, symptomatic antidepressant-treated patients with major depression who have a history of non-response to at least one prior antidepressant trial were recruited and studied over 3 years. Participants completed two ketamine infusion test days separated by at least two weeks. On each ketamine test day, patients were randomized to take a “loading dose” of rapamycin or placebo 2 hours before receiving an intravenous infusion of ketamine. The primary outcome measure of the study was the severity of depression, as measured by the Montgomery Åsberg Depression Rating Scale (MADRS). […]
Depression severity was assessed at baseline, and at 4 h, 24 h, 1 week, and 2 weeks post treatment. […]

In the case of `CNC1(c2ccccc2Cl)CCCCC1=O` (racemic) [ketamine, (RS)-2-(2-Chlorophenyl)-2-(methylamino)cyclohexanone], the time to relapse (placebo prior to 0.5 mg/kg iv ketamine, MADRS) is reported as ≤ 2 weeks and the “duration of benefits produced by ketamine” value (single ketamine infusion without rapamycin) is reported as “a few days”.
